Key:
[1] = biological target: PI3Kδ (Homo sapiens, UniProt O00329); assay: Kinase kinetic assay with varied ATP; assay type: biochemical; set-up: purchased Invitrogen; conditions: varied ATP concentrations
Procedure: Kinetic analyses of PI3Kδ and Vps34 were performed using a luminometric kinase assay varying the concentration of ATP using the ADP-Glo reagents (Promega). […] After 60 min incubation at RT, varied concentrations of ATP and 0.1 mM substrate (PIP2:PS for PI3Kδ, PI:PS for Vps34) were added and incubated for 60 min at 37° C. The overall rate of reaction was determined as the slope of the decreasing phase of the reaction. Each data point was collected in duplicate and kinetic parameters were obtained using Prism 5.0 (GraphPad Software, San Diego, CA).

[2] = test system: OCI-AML-3; assay: Induction of apoptosis (PARP cleavage); assay type: cell-based; conditions: OCI-AML-3, concentrations up to 10 μM
[3] = biological target: T1, PI3Kα (Mus musculus, UniProt P42337); assay: PI3K isoforms cellular selectivity assay (AKT phosphorylation, NIH-3T3, PDGF-BB); assay type: cell-based; conditions: NIH-3T3 cells, PDGF-BB stimulation
T1 construct: endogenous in cells; host or cells: NIH-3T3 (ATCC)
Procedure: Cells were lysed and AKT phosphorylation was determined by Western Blotting. Intensity of the bands was determined using ImageJ 1.42q (NIH, USA) and normalized to total AKT (loading control).

[4] = test system: MV4-11 cell-inoculated xenograft; assay: MV4-11 xenograft tumor model; assay type: in vivo
Excerpt: Six week old female nu/nu mice were purchased from the Shanghai Experimental Center, Chinese Science Academy (Shanghai). All animals were maintained in a specific pathogen-free facility and used according to the animal care regulations of Hefei Institutes of Physical Science Chinese Academy of Sciences, and all efforts were made to minimize animal suffering. To obtain an […] in the mice, cells were harvested during exponential growth. 7 million MV4-11 cells in PBS were suspended in a 1:1 mixture with Matrigel (BD Biosciences) and injected into the subcutaneous space on the right flank of nu/nu mice. Daily intraperitoneal injection was initiated when MV4-11 tumors had reached a size of 200 to 400 mm^3. Animals were then randomized into treatment groups of 5 mice each for efficacy studies. […] Body weight and tumor growth were measured daily after PI3KD/V-IN-01 treatment. Tumor volumes were calculated as follows: tumor volume (mm^3)=[(W^2× L)/2] in which width (W) is defined as the smaller of the two measurements and length(L) is defined as the larger of the two measurements.
TUNEL staining was performed using the POD in Situ Cell Death Detection kit (Roche, USA). Sections were deparaffinized in xylene, rehydrated in decreasing concentrations of ethanol, then treated by nuclease free Proteinase K for 15 min at room temperature before endogenous peroxidase was blocked in 3% H2O2 in methanol. Terminal deoxynucleotidyl transferase (TdT) in reaction buffer was applied to sections for 1h at 37°C. Following washes, the slides were covered by converter-POD solution for 30 min at 37°C. Apoptotic cells were detected after incubation in the 3, 3′-diaminobenzidine (DAB) chromogen (Beyotime Biotechnology) for approximately 8 min and slides were counterstained with hematoxylin.
Incubations with primary antibodies lasted overnight at 4°C. The secondary detection system was used to visualize antibody binding. Staining was developed with DAB; slides were counterstained with hematoxylin, dehydrated and mounted.

[5] = test system: NB4; assay: Anti-proliferative effect; assay type: cell-based; conditions: Homo sapiens, read-out: GI50 NB4
[6] = biological target: T2, PIK3C2A (Homo sapiens, UniProt O00443); assay: ADP-Glo biochemical assay; conditions: 50 μM ATP, read-out: IC50 against PIK3C2A
T2 construct: purchased Invitrogen

[7] = biological target: T3, PIK3C2B (Homo sapiens, UniProt O00750); assay: ADP-Glo biochemical assay; conditions: 50 μM ATP, read-out: IC50 against PIK3C2B
T3 construct: purchased Invitrogen

[8] = test system: Ramos; assay: Anti-proliferative effect; assay type: cell-based; conditions: Homo sapiens, read-out: GI50 Ramos
[9] = test system: MV4-11; assay: Anti-proliferative effect; assay type: cell-based; conditions: AML (FLT3-ITD)
[10] = test system: PI3Kδ-mediated signaling in OCI-AML-2, OCI-AML-3, MV4-11 and MEC-2 cell lines; assay: PI3Kδ-mediated signaling pathway (immunoblotting); assay type: cell-based; conditions: all four cell lines
Excerpt: The following antibodies were purchased from Cell Signaling Technology: Akt(#4691), Phospho-Akt(Thr308)(#4056), Phospho-Akt(Ser473)(#4060), GAPDH, GSK-3β(#9315), Phospho-GSK-3β(#9323), FoxO1(#2880), Phospho-FoxO1 (Thr24)/FoxO3a(Thr32)/FoxO4(Thr28)(#2599), PRAS40(#2691), Phospho-PRAS40 (Thr246)(#2997), 4E-BP1(#9644), p70 S6K(#2708), Phospho-p70 S6K (Thr389)(#9234). SQSTM1/p62 (D5E2)(#8025), LC3B(#12513). PARP(#9532), Caspase-3(#9665), Phospho-p44/42 MAPK (Erk1/2) (Thr202/Tyr204)(#4377), p44/42 MAPK (Erk1/2) (#4695), Phospho-NF-ΚB P65 (Ser 536)(#3033), NF-ΚB P65(#4764). Lysophosphatidic Acid (#sc-201053, Santa Cruz), Recombinant Human PDGF-BB (#220-BB, R&D), Recombinant Human C5a (Peprotech, #300-70), goat anti-IgM (#5C07615, Meridian). LC3B antibody (#3868, CST). Tubulin antibody (#8035, Santa Cruz). EEA1 antibody (#610456, BD Bioscience) and LAMP1 antibody (#24170, Abcam). Secondary antibodies, Alexa488-anti-mouse, Alexa594-anti-rabbit and Prolong gold mounting medium with DAPI were purchased from Invitrogen.

[11] = test system: MV4-11; assay: Cell cycle analysis; assay type: cell-based; conditions: MV4-11, 48 h treatment
[12] = test system: OCI-AML-2; assay: Autophagy markers LC3BII and p62 (immunoblotting); assay type: cell-based
[13] = biological target: T4, PI3Kγ (Homo sapiens, UniProt P48736); assay: ADP-Glo biochemical assay; conditions: purified protein, 50 μM ATP, read-out: IC50 against PI3Kγ (PIK3CG)
T4 construct: purchased Invitrogen

[14] = test system: Namalwa; assay: Anti-proliferative effect; assay type: cell-based; conditions: read-out: GI50 Namalwa
[15] = test system: OCI-AML-3; assay: Autophagy markers LC3BII and p62 (immunoblotting); assay type: cell-based
[16] = biological target: T5, mTOR kinase (Homo sapiens, UniProt P42345); assay: DiscoveRx's KinomeScan binding; conditions: read-out: % control number, mTOR
T5 construct: purchased DiscoveRx (KinomeScan platform)

[17] = immunohistochemistry, MV4-11 xenograft

T4 sequence (P48736 whole entry): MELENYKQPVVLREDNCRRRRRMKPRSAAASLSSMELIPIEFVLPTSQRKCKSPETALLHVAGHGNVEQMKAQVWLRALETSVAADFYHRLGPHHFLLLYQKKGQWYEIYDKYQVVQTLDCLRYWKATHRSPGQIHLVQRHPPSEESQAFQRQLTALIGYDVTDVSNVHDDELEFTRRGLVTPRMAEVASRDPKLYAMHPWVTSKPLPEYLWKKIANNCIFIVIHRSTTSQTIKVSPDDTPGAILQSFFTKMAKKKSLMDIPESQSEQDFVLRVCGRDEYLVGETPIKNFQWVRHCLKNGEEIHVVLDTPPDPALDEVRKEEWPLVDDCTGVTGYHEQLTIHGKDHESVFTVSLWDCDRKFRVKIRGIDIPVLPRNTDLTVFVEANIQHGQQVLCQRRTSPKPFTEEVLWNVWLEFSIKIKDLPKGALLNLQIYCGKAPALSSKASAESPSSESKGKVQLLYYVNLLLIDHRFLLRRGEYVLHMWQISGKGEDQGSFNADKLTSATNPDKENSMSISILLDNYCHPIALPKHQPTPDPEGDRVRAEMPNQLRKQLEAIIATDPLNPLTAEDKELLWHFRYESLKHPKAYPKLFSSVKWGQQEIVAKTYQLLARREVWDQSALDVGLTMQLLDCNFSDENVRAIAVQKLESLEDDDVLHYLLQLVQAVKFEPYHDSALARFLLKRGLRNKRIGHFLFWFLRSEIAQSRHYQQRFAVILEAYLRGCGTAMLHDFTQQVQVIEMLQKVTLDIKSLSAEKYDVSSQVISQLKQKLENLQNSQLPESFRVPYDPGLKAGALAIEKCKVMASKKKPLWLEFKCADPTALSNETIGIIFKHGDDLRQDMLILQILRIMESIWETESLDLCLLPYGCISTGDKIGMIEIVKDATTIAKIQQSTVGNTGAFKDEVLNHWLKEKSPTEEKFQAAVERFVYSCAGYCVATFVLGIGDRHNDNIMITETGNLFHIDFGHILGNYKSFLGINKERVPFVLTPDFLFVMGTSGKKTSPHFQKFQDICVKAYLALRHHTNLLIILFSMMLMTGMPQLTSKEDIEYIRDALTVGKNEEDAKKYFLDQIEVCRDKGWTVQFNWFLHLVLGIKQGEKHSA
Chain of PI3Kδ (O00329 whole entry): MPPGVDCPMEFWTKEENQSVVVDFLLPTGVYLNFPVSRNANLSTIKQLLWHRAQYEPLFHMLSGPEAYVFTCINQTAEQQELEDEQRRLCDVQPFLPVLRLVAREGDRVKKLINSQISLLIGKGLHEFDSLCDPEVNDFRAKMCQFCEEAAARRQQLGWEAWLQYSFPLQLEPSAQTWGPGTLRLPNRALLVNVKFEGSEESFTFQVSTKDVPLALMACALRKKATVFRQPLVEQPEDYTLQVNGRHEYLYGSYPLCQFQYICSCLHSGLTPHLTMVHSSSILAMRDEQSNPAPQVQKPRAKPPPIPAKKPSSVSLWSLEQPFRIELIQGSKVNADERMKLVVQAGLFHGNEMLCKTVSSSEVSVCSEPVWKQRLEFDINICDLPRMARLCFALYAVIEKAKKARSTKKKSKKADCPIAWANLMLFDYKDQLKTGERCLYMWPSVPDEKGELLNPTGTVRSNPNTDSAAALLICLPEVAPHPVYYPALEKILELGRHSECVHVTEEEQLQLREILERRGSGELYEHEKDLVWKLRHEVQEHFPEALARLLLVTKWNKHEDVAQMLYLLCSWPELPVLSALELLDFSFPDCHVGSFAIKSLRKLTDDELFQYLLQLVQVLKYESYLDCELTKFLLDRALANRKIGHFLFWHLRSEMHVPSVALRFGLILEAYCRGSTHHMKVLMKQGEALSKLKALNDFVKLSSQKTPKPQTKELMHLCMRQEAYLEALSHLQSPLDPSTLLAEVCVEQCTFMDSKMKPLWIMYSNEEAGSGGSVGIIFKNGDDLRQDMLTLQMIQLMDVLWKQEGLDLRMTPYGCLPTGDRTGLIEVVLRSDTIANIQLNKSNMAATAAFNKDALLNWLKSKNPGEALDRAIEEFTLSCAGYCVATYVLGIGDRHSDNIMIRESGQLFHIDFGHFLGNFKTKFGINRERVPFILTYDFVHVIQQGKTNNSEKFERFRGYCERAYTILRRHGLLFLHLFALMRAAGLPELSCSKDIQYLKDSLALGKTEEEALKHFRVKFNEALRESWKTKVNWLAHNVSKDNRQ
Chain of PI3Kδ (P27986 whole entry partner): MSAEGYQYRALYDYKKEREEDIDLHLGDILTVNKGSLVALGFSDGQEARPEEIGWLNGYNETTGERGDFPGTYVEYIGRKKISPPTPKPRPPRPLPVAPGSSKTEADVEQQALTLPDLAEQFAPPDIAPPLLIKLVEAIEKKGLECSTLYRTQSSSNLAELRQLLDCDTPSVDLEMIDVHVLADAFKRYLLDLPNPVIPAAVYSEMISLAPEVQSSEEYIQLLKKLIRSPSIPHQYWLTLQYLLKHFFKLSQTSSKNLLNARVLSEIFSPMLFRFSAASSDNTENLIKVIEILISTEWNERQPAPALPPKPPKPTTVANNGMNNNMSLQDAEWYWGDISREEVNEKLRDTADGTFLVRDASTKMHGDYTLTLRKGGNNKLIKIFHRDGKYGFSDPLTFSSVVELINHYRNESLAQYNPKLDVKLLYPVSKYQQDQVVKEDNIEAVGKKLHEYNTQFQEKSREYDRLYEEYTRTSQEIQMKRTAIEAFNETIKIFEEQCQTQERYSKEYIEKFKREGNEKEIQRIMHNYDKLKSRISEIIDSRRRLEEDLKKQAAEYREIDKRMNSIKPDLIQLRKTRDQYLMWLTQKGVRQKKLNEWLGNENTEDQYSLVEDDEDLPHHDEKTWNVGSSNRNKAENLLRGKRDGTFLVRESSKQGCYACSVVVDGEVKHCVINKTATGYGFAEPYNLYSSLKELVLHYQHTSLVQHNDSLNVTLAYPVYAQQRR
T2 sequence (O00443 whole entry): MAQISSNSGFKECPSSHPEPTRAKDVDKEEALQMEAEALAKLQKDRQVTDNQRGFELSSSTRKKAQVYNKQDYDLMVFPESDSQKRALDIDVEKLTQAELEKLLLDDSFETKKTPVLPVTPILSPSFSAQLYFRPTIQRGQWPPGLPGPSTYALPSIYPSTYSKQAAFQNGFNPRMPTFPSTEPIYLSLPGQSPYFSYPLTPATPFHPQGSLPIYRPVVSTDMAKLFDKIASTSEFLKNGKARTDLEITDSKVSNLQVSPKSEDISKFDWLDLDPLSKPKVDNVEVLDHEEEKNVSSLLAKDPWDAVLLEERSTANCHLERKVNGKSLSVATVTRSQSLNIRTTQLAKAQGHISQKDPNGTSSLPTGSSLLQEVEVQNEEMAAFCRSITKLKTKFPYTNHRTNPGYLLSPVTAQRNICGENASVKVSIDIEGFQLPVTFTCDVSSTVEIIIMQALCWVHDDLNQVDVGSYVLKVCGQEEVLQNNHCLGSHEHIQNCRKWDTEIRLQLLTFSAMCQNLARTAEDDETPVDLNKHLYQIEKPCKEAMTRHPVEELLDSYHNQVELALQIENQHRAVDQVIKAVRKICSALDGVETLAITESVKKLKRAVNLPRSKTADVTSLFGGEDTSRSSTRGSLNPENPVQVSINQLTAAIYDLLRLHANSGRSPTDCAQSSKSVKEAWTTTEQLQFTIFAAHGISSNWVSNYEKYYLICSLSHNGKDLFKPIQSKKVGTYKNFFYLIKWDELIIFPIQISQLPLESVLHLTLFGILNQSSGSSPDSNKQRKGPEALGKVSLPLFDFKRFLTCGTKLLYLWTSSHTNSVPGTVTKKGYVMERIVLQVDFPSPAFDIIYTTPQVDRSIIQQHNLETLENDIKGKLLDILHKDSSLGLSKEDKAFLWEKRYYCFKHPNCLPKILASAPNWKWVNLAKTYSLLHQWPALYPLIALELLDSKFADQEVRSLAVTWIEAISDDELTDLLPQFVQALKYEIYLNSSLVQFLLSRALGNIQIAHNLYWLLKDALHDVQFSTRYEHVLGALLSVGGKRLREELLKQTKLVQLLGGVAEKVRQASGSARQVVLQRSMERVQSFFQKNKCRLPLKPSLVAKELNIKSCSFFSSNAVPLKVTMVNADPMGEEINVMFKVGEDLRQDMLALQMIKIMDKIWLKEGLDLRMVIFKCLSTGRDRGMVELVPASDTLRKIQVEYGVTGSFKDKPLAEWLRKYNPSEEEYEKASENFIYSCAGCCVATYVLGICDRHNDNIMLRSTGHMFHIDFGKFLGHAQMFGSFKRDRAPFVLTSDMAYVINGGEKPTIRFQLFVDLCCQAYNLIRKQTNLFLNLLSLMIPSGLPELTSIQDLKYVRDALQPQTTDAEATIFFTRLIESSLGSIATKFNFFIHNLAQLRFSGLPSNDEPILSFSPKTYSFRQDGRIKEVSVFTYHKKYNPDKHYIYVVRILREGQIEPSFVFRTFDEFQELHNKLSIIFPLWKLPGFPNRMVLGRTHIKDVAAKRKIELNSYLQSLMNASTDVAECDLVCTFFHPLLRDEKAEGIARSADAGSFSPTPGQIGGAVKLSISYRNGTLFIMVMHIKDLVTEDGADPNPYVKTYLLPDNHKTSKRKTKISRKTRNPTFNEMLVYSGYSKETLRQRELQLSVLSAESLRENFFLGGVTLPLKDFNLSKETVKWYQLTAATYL

Q: What does the source list for `Cc1nc(NC(=O)CN)sc1-c1cnc(Cl)c(NS(=O)(=O)c2ccc(C(C)(C)C)cc2)c1` [PI3KD/V-IN-01, 2-amino-N-(5-(5-(4-tert-butylphenylsulfonamido)-6-chloropyridin-3-yl)-4-methylthiazol-2-yl)acetamide]?
A: Mode of inhibition against PI3Kδ [1]: ATP competitive inhibitor; induction of apoptosis [2]: no apoptosis was observed; EC50 [3]: 2970 nM; TGI (Tumor growth inhibition) ([4]; 50 mg/kg/day administered intraperitoneal, MV4-11 xenograft mice): 86.8%; effect on body weight ([4]; 50 mg/kg/day, MV4-11 xenograft mice): no apparent effects on body weight; apoptosis in tumor tissue (TUNEL stain) [4, 17]: dose-dependently increased; cell proliferation in tumor tissue (Ki67 stain) [4, 17]: dose-dependently inhibited; GI50 [5]: 1400 nM; IC50 [6]: > 10000 nM; IC50 [7]: > 10000 nM; GI50 [8]: 5400 nM; GI50 [9]: 780 nM; GI50 ([9]; Homo sapiens, MV4-11): < 1000 nM; Activity of GSK3β and NFκB [10]: not affected; Phosphorylation of 4EBP1 [10]: not inhibited; effect on pAKT(T308, S473), pFOXO1, pPRAS40 and pS6K [10]: inhibition of pAKT(T308, S473) and downstream pFOXO1, pPRAS40 and pS6K; cell cycle progression [11]: arrested in the G0/G1 phase; levels of the autophagy markers, LC3BII and p62 [12]: concentration-dependent increase; IC50 [13]: 119 nM; GI50 [14]: 1300 nM; levels of the autophagy markers, LC3BII and p62 [15]: concentration-dependent increase; remaining binding at 1 µM [16]: 0%
